Source: patent publication US10780094B2, “Use of carbonic anhydrase inhibitors for treatment of neurological and psychiatric disorders” (New York University, priority 2016, dated 2020)

Tests used:
[1] = system: mitochondria isolated from ECs (D3 cells); assay: Mitochondrial H2O2 production (Amplex Red) after Aβ challenge; assay type: cell-based, human; conditions: ATZ at lower concentrations than MTZ
Description: Cells were plated on 6-wells plates and treated with the peptides and/or drugs for the experimental times. Plates were centrifuged for 10 min at 1.000 RPM and washed twice with PBS 1×. After that, 500 μL of homogenization buffer (75 mM sucrose, 225 mM mannitol, 5 mM Tris-HCl pH=7.4, 1 mM PMSF and protease inhibitor cocktail) was added. Cells were scraped in this buffer, collected in glass tubes and grinded exactly 80 times with a pellet pestle, keeping everything always on ice. Cells were then centrifuged at 2.800 RPM for 5 min at 4° C. The supernatant was collected and centrifuged again at 2.800 RPM for 5 min at 4° C. The supernatant was again collected and centrifuged at 10.500 RPM for another 5 min at 4° C. After this, the supernatant was discarded and the pellet was re-suspended in 100 μL of homogenization buffer. The samples were centrifuged again at 10.500 RPM for 10 min at 4° C., the supernatant was discarded and the pellets (mitochondrial fractions) were re-suspended on 50 μL of homogenization buffer. […] After that, mitochondrial fractions containing equal amounts of mitochondrial proteins were placed on 96-wells microplate absorbance microtiter (ThermoFisher, Waltham, Mass., US) and the AmplexRed assay was ran, following the instructions provided by the manufacturer. Absorbance was measured by using a FlexStation (Molecular Devices, Sunnyvalem Calif., US).

SH-SY5Y and D3 cells = assay: Aβ-induced cell death pathways (caspase 3 and 9 activation, CytC release, apoptosis); assay type: cell-based, human
Description: SH-SY5Y and D3 cells were plated on 15 mm optical borosilicate poly-L-lysine-coated sterile glass covers (ThermoFisher, Waltham, Mass., US) at a 70% confluence. After 24 hours, cells were treated with the peptides, the drugs or the different combinations of both of them, rinsed in PBS 1×, and fixed with 4% paraformaldehyde for 20 minutes. After that, the coverslips were washed once for 5 minute with PBS 1×, room temperature and twice for 5 minutes with cold PBS 1×. Cells were then permeabilized and blocked for 1 h with BSA 20 mg/mL+Triton 0.3% on PBS and incubated with the anti-active caspase-3 antibody, on PBS containing BSA 5 mg/mL, for 2 h. Next, cells were washed three times for 5 min each with PBS 1× and incubated with the secondary antibody (Alexa Fluor 488 anti-mouse antibody), at a 1:200 dilution in PBS containing BSA 5 mg/mL for an additional hour in the dark. Cells were then washed three times in the dark with 1 mL of PBS 1× and mounted on cover slips (ThermoFisher, Waltham, Mass., US). After mounting, cells were imaged, using a Nikon Eclipse Ti inverted microscope with a 20× objective (Nikon, Chiyoda. Tokyo, Japan).
Cells were plated at a confluence of 10.000 cells per well in 96-wells microplate luminescence microtiter (ThermoFisher, Waltham, Mass., US). The day after, cells were treated with the peptides and/or drugs for the experimental times. After that, caspase-Glo 9 assay was performed, following the protocol provided from the manufacturer. Luminescence was measured using a FlexStation 3 Multi-Mode Microplate Reader (Molecular devices, Sunnyvalem Calif., US).
20.000 cells per well were plated on 24-wells plates. The day after, cells were treated with peptides and/or drugs, following the experimental conditions.

[2] = system: cerebral microvascular endothelial cells (D3); assay: Aβ-induced mitochondrial Cytochrome C release; assay type: cell-based, human; conditions: Example 3
Description: Both EC and SH-SY5Y cells were plated on to glass chamber slides (Thermo Fisher Scientific), pre-coated with either collagen-I or poly-d-lysine (for ECs and SH-SY5Y cells respectively). After seeding, cells were allowed to attach for 1 day before treatment with the different peptides for 1-3 days, as above. Cells were washed with ice-cold PBS, fixed with 4% paraformaldehyde (10 min at room temperature) and blocked for 1 h with 20 mg/ml BSA in PBST (PBS containing 0.3% Triton X-100). Slides were further incubated with mouse anti-CytC monoclonal antibody (BD Biosciences; 1:200 dilution in PBST containing 5 mg/ml BSA; 2 h at room temperature) followed by Alexa Fluor® 488-conjugated anti-(mouse IgG) antibody (Invitrogen; 1:200 in PBST with 5 mg/ml BSA; 1 h at room temperature). Fluorescence signals were visualized in a Nikon Eclipse E 800 deconvolution microscope using NIS Elements software (Nikon Instruments) for image acquisition and processing, and AutoQuant (Media Cybernetics) for 3D deconvolution. The effect of methazolamide in preventing the Aβ-induced release of CytC from the mitochondria into the cytoplasm was evaluated in EC and SH-SY5Y cultures. […]

Normal Human Astrocytes = assay: Cell Death ELISAplus, Aβ-induced apoptosis (fragmented nucleosomes); assay type: cell-based; conditions: 1 day
Description: The extent of apoptosis caused by Aβ in the presence or absence of MTZ was assessed by quantitation of nucleosome formation using Cell Death ELISA^plus (Roche Applied Science, Indianapolis, Ind.). Briefly, after incubation with the peptides, plates were centrifuged in a Beckman J-6B centrifuge (10 min; 1,000 rpm), cells lysed, and DNA-histone complexes (nucleosomes) quantitated by Cell Death ELISA, as previously described (Fossati et al., 2010).

| Compound | inhibition of H2O2 production, compared with MTZ [1] | caspase activation and CytC release induced by Aβ (SH-SY5Y and D3 cells; ATZ) | effective concentration lower than that of MTZ (SH-SY5Y and D3 cells; ATZ versus MTZ) [times] | nuclear chromatin condensation indicative of apoptosis (SH-SY5Y and D3 cells; Aβ challenge, FIGS. 16A-16B) | CytC localization (immunocytochemistry) ([2]; Aβ40-Q22 25 μM or Aβ40/42 WT 10 μM, 24 h) | release of CytC, cells with diffuse green staining as % of total cells ([2]; FIG. 23B) | DNA fragmentation after Aβ challenge (Normal Human Astrocytes; 100 μM MTZ) | Aβ-mediated increase in fragmented nucleosomes (Normal Human Astrocytes; 300 μM MTZ, Aβ42 10 μM) |
| --- | --- | --- | --- | --- | --- | --- | --- | --- |
| CC(=O)Nc1nnc(S(N)(=O)=O)s1 [ATZ, acetazolamide] | more dramatic effect on the inhibition of H2O2 production | completely reverting | 10 | prevented |  |  |  |  |
| CC(=O)/N=c1/sc(S(N)(=O)=O)nn1C [MTZ, methazolamide] |  |  |  |  | retained in the mitochondria | prevented | significantly effective at reducing DNA fragmentation | completely prevented |
